The values below come from patent publication US8946260B2, “17α-hydroxylase/C17,20-lyase inhibitors” (Novartis AG, priority 2010, dated 2015).

The first test deals with T1, recombinant Human CYP17 enzyme (17-20 lyase) (Homo sapiens, UniProt P05093).
T1 construct: made in house; host or cells: A549 cells, adenoviral expression system; purified cell membrane preparations
T1 sequence (P05093 1-508): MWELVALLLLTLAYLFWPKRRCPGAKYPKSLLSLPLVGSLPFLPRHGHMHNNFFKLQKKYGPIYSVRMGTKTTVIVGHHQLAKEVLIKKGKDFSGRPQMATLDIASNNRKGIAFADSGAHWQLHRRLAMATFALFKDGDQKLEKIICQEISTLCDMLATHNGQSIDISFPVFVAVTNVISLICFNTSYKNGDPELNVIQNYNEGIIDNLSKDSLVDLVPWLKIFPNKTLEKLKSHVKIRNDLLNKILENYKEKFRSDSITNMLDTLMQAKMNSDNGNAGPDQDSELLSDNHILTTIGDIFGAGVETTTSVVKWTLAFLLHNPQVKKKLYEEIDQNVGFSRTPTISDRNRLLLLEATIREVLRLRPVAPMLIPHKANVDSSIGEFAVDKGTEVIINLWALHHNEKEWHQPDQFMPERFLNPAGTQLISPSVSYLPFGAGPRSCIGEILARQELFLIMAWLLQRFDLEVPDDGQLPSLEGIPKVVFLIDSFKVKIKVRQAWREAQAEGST
As to the kind of experiment: Cytochrome P450, 17-20 lyase (CYP17-lyase) assay, 17-α-hydroxy pregnenolone [21-3H] as substrate. The test is classed as biochemical. As to conditions: at 10 μM; read-out: hCYP17 Lyase % Inh. The source says: 1) Cytochrome P450, 17-20 Lyase (CYP17-Lyase) Assay Development Using Recombinant Human CYP17 Enzyme and 17-α-Hydroxy Pregnenolone [21-3H] as the Substrate.
Cytochrome P450, 17-α-Hydroxylase, 17-20 lyase (CYP17) is a multi functional enzyme that plays a key role in the biosynthesis of steroid hormones. It catalyses both conventional hydroxylation and also the carbon-carbon bond cleavage reactions (Peter Lee-Robichaud et al, Biochem. J, (1997) 321, 857-63). In the hydroxylation reaction, it converts progesterone and pregnenolone to the corresponding hydroxylated products 17-α-hydroxy progesterone and 17-α-hydroxy pregnenolone. In the lyase reaction, it catalyzes the conversion of these hydroxylated substrates to Androstenedione and Dehydroepiandrosterone (DHEA) respectively. In the Cyp17 lyase assay described here, the conversion of 17-α-hydroxy pregnenolone to Dehydroepiandrosterone and acetic acid is being monitored.
Assay method was adopted from a published protocol with some modifications to suit our requirements (Dmitry N Grigoryev et al, Analytical Biochemistry, (1999) 267, 319-330). The conversion of 17-α-hydroxy pregnenolone to Dehydroepiandrosterone is accompanied by the release of acetic acid. In the Cyp17 lyase assay, 17-α-hydroxy pregnenolone labeled with tritium (3H) at position 21 is used as the substrate. Chloroform extraction removes the radioactive steroids and acetic acid is taken into aqueous layer. The tritiated acetic acid released in the assay thus extracted is quantified to determine the enzyme activity.
Initial buffer conditions were, 50 mM Phosphate buffer, pH 7.5 was used as the starting buffer for Cyp17 lyase activity based on the data published in US patent publication No. US2004/0198773 A1. […] Human Cyp 17 gene was cloned and expressed in Adenoviral expression system in A549 cell lines. The purified cell membrane preparations were used as the source for Human CYP17 enzyme. Total protein concentration: 8 mg/mL.
For routine screening, the assay was set up with 16 μg of enzyme in 50 μL reaction volume. 17α-hydroxy pregnenolone [21-3H] was added to a final concentration of 0.25 μM. NADPH is used at a final concentration of 4.2 mM. Total reaction volume was made up to 50 μL with 50 mM Phosphate buffer pH 7.5. The reaction mixture was incubated at room temperature for 90 minutes with gentle shaking. The reaction was stopped by the addition of 100 μL of buffer. 500 μL of 5% freshly prepared activated charcoal was added to the solution and mixed well by vortexing. The samples were centrifuged at 17568×g for 5 minutes. (14000 rpm). The supernatant was carefully transferred to fresh tube and 1.3 mL of scintillation fluid was added, mixed by vortexing.
The radioactivity was measured in a 1450 MicroBeta TriLux™ scintillation counter from Wallac-Perkin Elmer®, USA. The measurements were carried out in 2.0 mL Eppendorf™ tubes. Each tube was counted for 1 minute. The amount of tritiated acetic acid released is proportional to the lyase activity. Percent lyase activity in presence of inhibitor was calculated using the formula given below.
[formula] • Sample: Enzyme reaction in presence of inhibitor. • Positive control: Enzyme reaction without inhibitor but containing DMSO at 1% final concentration. • Blank—Contains all reagents except enzyme. • % Inhibition=100%−% Lyase activity
For IC50 determination, the % inhibition was plotted as a function of inhibitor concentration. The data was fitted to sigmoidal equation using Graphpad Prism® software IV to generate IC50 values.
In the case of `Cc1ccncc1N1CCc2ccc(NC(=O)C3CC3)cc2C1=O` [Example 25A, Cyclopropanecarboxylic acid [2-(4-methyl-pyridin-3-yl)-1-oxo-1,2,3,4-tetrahydro-isoquinolin-7-yl]-amide], the inhibition at 10 µM came to 35%.
The same measure, in the same setting: then `Cc1ccncc1N1CCc2c(cccc2C(F)(F)F)C1=O` [Example 22A, 2-(4-Methyl-pyridin-3-yl)-5-trifluoromethyl-3,4-dihydro-2H-isoquinolin-1-one], with 42%; and `O=C1c2sccc2CCN1c1cccnc1` [Example 6A, 6-Pyridin-3-yl-5,6-dihydro-4H-thieno[2,3-c]pyridin-7-one], with 48%.
For the compound `O=C1c2ccsc2CCN1c1cccnc1` [Example 8A, 5-Pyridin-3-yl-6,7-dihydro-5H-thieno[3,2-c]pyridin-4-one], the inhibition at 10 µM turned out to be 27%.
Same read-out and setting: the result for `COc1ccc(F)c2c1C(=O)N(c1cnccc1C)CC2` [Example 44A, 5-fluoro-8-methoxy-2-(4-methylpyridin-3-yl) 3,4-dihydroisoquinolin-1(2H)-one] reads 8%; that for `COc1cc2c(cc1OC)C(=O)N(c1cnccc1C)CC2` [Example 40A, 6,7-Dimethoxy-2-(4-methyl-pyridin-3-yl)-3,4-dihydro-2H-isoquinolin-1-one], 12%; that for `Cc1ccncc1N1CCc2ccc(Oc3ncc(F)cn3)cc2C1=O` [Example 37A, 7-(5-fluoropyrimidin-2-yloxy)-2-(4-methylpyridin-3-yl)-3,4-dihydroisoquinolin-1(2H)-one], 63%.

The same test, now with this note: human CYP17 lyase; substrate 0.25 μM; room temperature, 90 minutes.
On to `O=C1c2ccc(F)cc2CCN1c1cnccc1C(F)(F)F` [Example 78A, 6-fluoro-2-(4-(trifluoromethyl)pyridin-3-yl)-3,4-dihydroisoquinolin-1(2H)-one], for which the “Lyase IC 50 nM Human” value is “Not active”.

The same test, now with this note: human CYP17 lyase; substrate 0.25 μM; room temperature, 90 minutes; read-out: Lyase IC 50 nM Human.
For the compound `Cc1ccncc1N1CCc2cc3cn[nH]c3cc2C1=O` [Example 69A, 7-(4-methylpyridin-3-yl)-6,7-dihydro-1H-pyrazolo[4,3-g]isoquinolin-8(5H)-one], the IC50 is 93 nM.
The same measure, in the same setting: then `Cc1ccncc1N1CCc2cc(F)c(F)cc2C1=O` [Example 49A, 6,7-difluoro-2-(4-methylpyridin-3-yl)-3,4-dihydroisoquinolin-1(2H)-one], with 159 nM; and `O=c1c2cc(C(F)(F)F)ccc2ccn1-c1cccnc1` [Example 36A, 2-(pyridin-3-yl)-7-(trifluoromethyl)isoquinolin-1(2H)-one], with 54 nM.
The same measure, in the same setting: then `O=C1c2ccc(C(F)(F)F)cc2CCN1c1cncc(F)c1` [Example 56A, 2-(5-fluoropyridin-3-yl)-6-(trifluoromethyl)-3,4-dihydroisoquinolin-(2H)-one], with 1110 nM; and `O=C1c2cc(Cl)ccc2CCN1c1cnccc1C1CC1` [Example 74A, 7-chloro-2-(4-cyclopropylpyridin-3-yl)-3,4-dihydroisoquinolin-1 (2H)-one], with 23 nM.
The same measure, in the same setting: then `Cc1ccncc1N1CCc2ccc(C#N)cc2C1=O` [Example 32A, 2-(4-methylpyridin-3-yl)-1-oxo-1,2,3,4-tetrahydroisoquinoline-7-carbonitrile], with 301 nM; and `O=C1c2cc(C(F)(F)F)ccc2CCN1c1cnccc1C(F)(F)F` [Example 21A, 7-Trifluoromethyl-2-(4-trifluoromethyl-pyridin-3-yl)-3,4-dihydro-2H-isoquinolin-1-one], with 56 nM; and `O=C1c2cc(C(F)(F)F)ccc2CCN1c1cnccc1CNC1CC1` [Example 53A, 2-(4-((cyclopropylamino)methyl)pyridin-3-yl)-7-(trifluoromethyl)-3,4-dihydroisoquinolin-1(2H)-one], with 50 nM.
As to `O=C1c2cc(C(F)(F)F)ccc2CCN1c1cncc(F)c1` [Example 18A, 2-(5-Fluoro-pyridin-3-yl)-7-trifluoromethyl-3,4-dihydro-2H-isoquinolin-1-one], the IC50 was 334 nM.
On the same count and under the same terms, the result for `O=C1c2c(sc3ccc(F)cc23)CCN1c1cnccc1C(F)(F)F` [Example 57A, 8-Fluoro-2-(4-trifluoromethylpyridine-3-yl)-3,4-dihydro-2H-benzo[4,5]thieno[3,2-c]pyridin-1-one] reads 548 nM; that for `Cc1ccncc1N1CCc2ccc3ccccc3c2C1=O` [Example 10A, 2-(4-Methyl-pyridin-3-yl)-3,4-dihydro-2H-benzo[h]isoquinolin-1-one], 3.5 nM.
Same read-out and setting: then `CC1Cc2ccc(C(F)(F)F)cc2C(=O)N1c1cccnc1` (stereo not drawn) [Example 43A, 3-Methyl-2-pyridin-3-yl-7-trifluoromethyl-3,4-dihydro-2H-isoquinolin-1-one], with 15 nM; and `Cc1ccncc1N1CCc2[nH]c3ccc(F)cc3c2C1=O` [Example 60A, 8-fluoro-2-(4-methylpyridin-3-yl)-2,3,4,5-tetrahydro-1H-pyrido[4,3-b]indol-1-one], with 9 nM.
On to `Cc1ccncc1N1CCc2ccncc2C1=O` [Example 65A, 2-(4-methylpyridin-3-yl)-3,4-dihydro-2,7-naphthyridin-1(2H)-one], for which the IC50 stood at 1140 nM.
The same measure, in the same setting: then `COc1cc2c(cc1Cl)C(=O)N(c1cnccc1C)CC2` [Example 86A, 7-chloro-6-methoxy-2-(4-methylpyridin-3-yl)-3,4-dihydroisoquinolin-1(2H)-one], with 11 nM.
Same read-out and setting: the result for `O=C1c2cc(I)c(F)cc2CCN1c1cnccc1C(F)(F)F` [Example 79A, 6-fluoro-7-iodo-2-(4-(trifluoromethyl)pyridin-3-yl)-3,4-dihydroisoquinolin-1(2H)-one] reads 19 nM.
As for `COc1ccc2c(c1)C(=O)N(c1cnccc1C)CC2` [Example 26A, 7-Methoxy-2-(4-methyl-pyridin-3-yl)-3,4-dihydro-2H-isoquinolin-1-one], the IC50 came to 17 nM.
`O=C1c2cc(Cl)ccc2CCN1c1cccnc1` [Example 1A, 7-Chloro-2-pyridin-3-yl-3,4-dihydro-2H-isoquinolin-1-one]: the IC50 is 60 nM.
Consider `CCn1ccc2c1C(=O)N(c1cnccc1C)CC2` [Example 28A, 1-Ethyl-6-(4-methyl-pyridin-3-yl)-1,4,5,6-tetrahydro-pyrrolo[2,3-c]pyridin-7-one], for which the IC50 is 70 nM.
Same read-out and setting: the result for `O=C1c2cc(C(F)(F)F)c(Cl)cc2CCN1c1cnccc1C(F)(F)F` [Example 85A, 6-chloro-7-(trifluoromethyl)-2-(4-(trifluoromethyl)pyridin-3-yl)-3,4-dihydroisoquinolin-1(2H)-one] reads 108 nM; that for `Cc1ccncc1N1CCc2cc(C#N)c(Cl)cc2C1=O` [Example 88A, 7-chloro-2-(4-methylpyridin-3-yl)-1-oxo-1,2,3,4-tetrahydroisoquinoline-6-carbonitrile], 11 nM.
The same measure, in the same setting: the result for `O=c1c2cc(C(F)(F)F)ccc2ccn1-c1cncc(F)c1` [Example 68A, 2-(5-fluoropyridin-3-yl)-7-(trifluoromethyl)isoquinolin-1(2H)-one] reads 282 nM.
